Test system: SARS-CoV-2
Assay: Functional immunofluorescence assay to measure dose dependent changes in antiviral-drug inhibitory efficacy against hCoV-19/USA-WA1/2020 in HeLa-ACE2 cells which are seeded prior to drug treatment, then infected with hCoV-19/USA-WA1/2020. Cells are fixed with 10 % formaldehyde, washed with PBS, permeabilized with permeabilization buffer, then washed with wash buffer. The cells are incubated with nucleoprotein primary antibody IC7C7. Following primary staining, cells are washed with wash buffer and incubated in a solution of with Alexa fluor 488 and DAPI. Infected and uninfected cells are visualized and analyzed by Gen5 software. The assay has been performed by Icahn School of Medicine at Mount Sinai.
Type: organism-based, Homo sapiens
Settings: for EC50: Severe acute respiratory syndrome coronavirus 2, HeLa-ACE2

Row | SMILES | EC50 [µM] | also measured
1 | CCNC(=O)c1cc2c(N[C@@H](c3ccc4c(c3)S(=O)(=O)CCO4)C(C)C)ncnc2[nH]1 | > 20 | EC90 (Severe acute respiratory syndrome coronavirus 2, HeLa-ACE2, Baseline response 0 %, Hill slope -0.398, Maximum measured 111.753 %, Maximum response 100 %, Minimum measured 79.377 %, R squared 0.175): > 20 µM
2 | Cc1nn(C)cc1-c1cc2c(N[C@@H](c3ccc4c(c3)S(=O)(=O)CCC4)C(C)C)ncnc2[nH]1 | > 20 | EC90 (Severe acute respiratory syndrome coronavirus 2, HeLa-ACE2, Maximum measured 131.643 %, Minimum measured 93.649 %): > 20 µM
3 | CCNC(=O)c1cc2c(N[C@@H](c3ccc4c(c3)S(=O)(=O)CCC4)C(C)C)ncnc2[nH]1 | > 20 | EC90 (Severe acute respiratory syndrome coronavirus 2, HeLa-ACE2, Baseline response 0 %, Hill slope -4.495, Maximum measured 108.517 %, Maximum response 100 %, Minimum measured 90.612 %, R squared 0.096): > 20 µM
4 | CNC(=O)c1cccc(-c2cc3c(N[C@@H](c4ccc5c(c4)S(=O)(=O)CCC5)C(C)C)ncnc3[nH]2)c1 | > 20 | EC90 (Severe acute respiratory syndrome coronavirus 2, HeLa-ACE2, Baseline response 0 %, Hill slope -1.505, Maximum measured 108.746 %, Maximum response 100 %, Minimum measured 56.34 %, R squared 0.642): > 20 µM
5 | CC(C)[C@@H](Nc1ncnc2[nH]c(-c3cnn(C)c3)cc12)c1ccc2c(c1)S(=O)(=O)NCC2 | > 20 | EC90 (Severe acute respiratory syndrome coronavirus 2, HeLa-ACE2, Baseline response 0 %, Hill slope -6.715, Maximum measured 105.419 %, Maximum response 100 %, Minimum measured 69.993 %, R squared 0.42): > 20 µM
6 | CC(C)[C@H](Nc1ncnc2[nH]c(-c3cnn(C)c3C#N)cc12)c1ccc2c(c1)S(=O)(=O)CCC2 | 6.21 | EC90 (Severe acute respiratory syndrome coronavirus 2, HeLa-ACE2, Baseline response 0 %, Hill slope -14.93, Maximum measured 129.006 %, Maximum response 100 %, Minimum measured 5.734 %, R squared 0.877): 7.19 µM
7 | CC(C)(C)[C@H](Nc1ncnc2[nH]c(-c3cnn(CC(N)=O)c3)cc12)c1ccc2c(c1)OCCO2 | > 20 | EC90 (Severe acute respiratory syndrome coronavirus 2, HeLa-ACE2, Baseline response 0 %, Hill slope -0.655, Maximum measured 108.484 %, Maximum response 100 %, Minimum measured 91.129 %, R squared 0.123): > 20 µM
8 | CNCc1cc(-c2cc3c(N[C@H](c4ccc5c(c4)S(=O)(=O)CCC5)C(C)C)ncnc3[nH]2)co1 | 11.1 | EC90 (Severe acute respiratory syndrome coronavirus 2, HeLa-ACE2, Baseline response 0 %, Hill slope -0.715, Maximum measured 94.818 %, Maximum response 100 %, Minimum measured 27.713 %, R squared 0.683): > 20 µM
9 | CC(C)[C@H](Nc1ncnc2[nH]c(-c3cnn(C)c3C#N)cc12)c1ccc2c(n1)NC(=O)CO2 | 0.858 | EC90 (Severe acute respiratory syndrome coronavirus 2, HeLa-ACE2, Baseline response 0 %, Hill slope -0.619, Maximum measured 70.604 %, Maximum response 100 %, Minimum measured 3.388 %, R squared 0.805): > 20 µM
10 | CC(C)[C@@H](Nc1ncnc2[nH]ccc12)c1ccc2c(c1)S(=O)(=O)CCO2 | > 20 | EC90 (Severe acute respiratory syndrome coronavirus 2, HeLa-ACE2, Baseline response 0 %, Hill slope -0.245, Maximum measured 99.283 %, Maximum response 100 %, Minimum measured 83.757 %, R squared 0.186): > 20 µM
11 | COc1ccc([C@@H](Cc2nnn[nH]2)NC(=O)c2ncnc3[nH]ccc23)cc1 | > 20 | EC90 (Severe acute respiratory syndrome coronavirus 2, HeLa-ACE2, Maximum measured 136.92 %, Minimum measured 93.837 %): > 20 µM
12 | CC(C)[C@H](Nc1ncnc2[nH]c(-c3cnn(C)c3C#N)cc12)c1ccc2c(c1)NC(=O)CO2 | 1.33 | EC90 (Severe acute respiratory syndrome coronavirus 2, HeLa-ACE2, Baseline response 0 %, Hill slope -0.558, Maximum measured 72.17 %, Maximum response 100 %, Minimum measured 6.652 %, R squared 0.72): > 20 µM
13 | CCNC(=O)c1cc2c(N[C@@H](c3ccc4c(c3)S(=O)(=O)NCC4)C(C)C)ncnc2[nH]1 | > 20 | EC90 (Severe acute respiratory syndrome coronavirus 2, HeLa-ACE2, Maximum measured 101.15 %, Minimum measured 78.382 %): > 20 µM
14 | CC(C)[C@H](Nc1ncnc2[nH]c(-c3cnn(C)c3)cc12)c1ccc2c(c1)S(=O)(=O)CCC2 | > 20 | EC90 (Severe acute respiratory syndrome coronavirus 2, HeLa-ACE2, Baseline response 0 %, Hill slope -1.829, Maximum measured 111.115 %, Maximum response 100 %, Minimum measured 52.798 %, R squared 0.593): > 20 µM

Reference: ChEMBL document CHEMBL5441381, “ASAP - In vitro antiviral effect” (2024)
